Target: T1, recombinant hDHFR (human dihydrofolate reductase) (Homo sapiens, UniProt P00374)
T1 construct: gene DHFR
T1 sequence (P00374 1-187): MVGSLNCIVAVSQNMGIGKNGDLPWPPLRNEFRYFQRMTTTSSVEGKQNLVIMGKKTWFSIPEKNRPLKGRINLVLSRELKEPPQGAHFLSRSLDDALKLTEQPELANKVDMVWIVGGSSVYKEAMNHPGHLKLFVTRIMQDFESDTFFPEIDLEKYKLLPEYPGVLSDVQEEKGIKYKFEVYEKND
Test: in vitro DHFR enzyme activity assay, dose-response
Type: biochemical

IC50: 141 nM
Compound: CCc1nc(N)nc(N)c1-c1cc(Cl)cc(Cl)c1 [WCDD114]

Reference: article PMC12495326 (The Journal of Biological Chemistry, 2025)
